In PubChem BioAssay AID1259407 (Chemical Carcinogenesis Research Information System (CCRIS), 2018) one finds mutagenic call data, which are given here for two molecules.

The test system of the series is CCRIS mutagenicity, Ames/micronucleus/aberration tests. Kind of series: CCRIS mutagenicity studies.

SMILES strings stand for the structures. The source made the active and inactive calls. No rule for the calls is given here.

In the case of `Cl/C=C\Cl`, the mutagenic call was “inactive; negative” (End Point: IN VITRO CHROMOSOMAL ABERRATIONS, Test System: CHINESE HAMSTER LUNG (CHL), Metabolic Activation: NONE); “inactive; negative” (End Point: IN VITRO CHROMOSOMAL ABERRATIONS, Test System: CHINESE HAMSTER LUNG (CHL), Metabolic Activation: RAT. LIVER, S-9, KC-400); “inactive; negative” (Test System: AMES SALMONELLA TYPHIMURIUM, Strain/Indicator: TA97, Metabolic Activation: HAMSTER LIVER S-9, AROCLOR 1254 (10%), Method: PREINCUBATION); “inactive; negative” (Test System: AMES SALMONELLA TYPHIMURIUM, Strain/Indicator: TA97, Metabolic Activation: HAMSTER LIVER S-9, AROCLOR 1254 (30%), Method: PREINCUBATION); “inactive; negative” (Test System: AMES SALMONELLA TYPHIMURIUM, Strain/Indicator: TA97, Metabolic Activation: HAMSTER, LIVER, S-9, AROCLOR 1254 (10%), Method: PREINCUBATION); “inactive; negative” (Test System: AMES SALMONELLA TYPHIMURIUM, Strain/Indicator: TA97, Metabolic Activation: HAMSTER, LIVER, S-9, AROCLOR 1254 (30%), Method: PREINCUBATION). Further, the mutagenic call reads like this: (Test System: AMES SALMONELLA TYPHIMURIUM, Strain/Indicator: TA97, Metabolic Activation: NONE, Method: PREINCUBATION) “inactive; negative”; (Test System: AMES SALMONELLA TYPHIMURIUM, Strain/Indicator: TA97, Metabolic Activation: RAT LIVER S-9, AROCLOR 1254 (10% OR 30%), Method: PREINCUBATION) “inactive; negative”; (Test System: AMES SALMONELLA TYPHIMURIUM, Strain/Indicator: TA97, Metabolic Activation: RAT, LIVER, S-9, AROCLOR 1254 (10 OR 30%), Method: PREINCUBATION) “inactive; negative”; (Test System: AMES SALMONELLA TYPHIMURIUM, Strain/Indicator: TA98, Metabolic Activation: HAMSTER LIVER S-9, AROCLOR 1254 (10%), Method: PREINCUBATION) “inactive; negative”; (Test System: AMES SALMONELLA TYPHIMURIUM, Strain/Indicator: TA98, Metabolic Activation: HAMSTER LIVER S-9, AROCLOR 1254 (30%), Method: PREINCUBATION) “inactive; negative”; (Test System: AMES SALMONELLA TYPHIMURIUM, Strain/Indicator: TA98, Metabolic Activation: HAMSTER, LIVER, S-9, AROCLOR 1254 (10%), Method: PREINCUBATION) “inactive; negative”. In addition, the mutagenic call is “inactive; negative” (Test System: AMES SALMONELLA TYPHIMURIUM, Strain/Indicator: TA98, Metabolic Activation: HAMSTER, LIVER, S-9, AROCLOR 1254 (30%), Method: PREINCUBATION); “inactive; negative” (Test System: AMES SALMONELLA TYPHIMURIUM, Strain/Indicator: TA98, Metabolic Activation: NONE, Method: PREINCUBATION); “inactive; negative” (Test System: AMES SALMONELLA TYPHIMURIUM, Strain/Indicator: TA98, Metabolic Activation: RAT LIVER S-9, AROCLOR 1254 (10% OR 30%), Method: PREINCUBATION); “inactive; negative” (Test System: AMES SALMONELLA TYPHIMURIUM, Strain/Indicator: TA98, Metabolic Activation: RAT, LIVER, S-9, AROCLOR 1254 (10 OR 30%), Method: PREINCUBATION); “inactive; negative” (Test System: AMES SALMONELLA TYPHIMURIUM, Strain/Indicator: TA100, Metabolic Activation: HAMSTER LIVER S-9, AROCLOR 1254 (10%), Method: PREINCUBATION); “inactive; negative” (Test System: AMES SALMONELLA TYPHIMURIUM, Strain/Indicator: TA100, Metabolic Activation: HAMSTER LIVER S-9, AROCLOR 1254 (30%), Method: PREINCUBATION). The mutagenic call reads like this: (Test System: AMES SALMONELLA TYPHIMURIUM, Strain/Indicator: TA100, Metabolic Activation: HAMSTER, LIVER, S-9, AROCLOR 1254 (10%), Method: PREINCUBATION) “inactive; negative”; (Test System: AMES SALMONELLA TYPHIMURIUM, Strain/Indicator: TA100, Metabolic Activation: HAMSTER, LIVER, S-9, AROCLOR 1254 (30%), Method: PREINCUBATION) “inactive; negative”; (Test System: AMES SALMONELLA TYPHIMURIUM, Strain/Indicator: TA100, Metabolic Activation: NONE, Method: PREINCUBATION) “inactive; negative”; (Test System: AMES SALMONELLA TYPHIMURIUM, Strain/Indicator: TA100, Metabolic Activation: RAT LIVER S-9, AROCLOR 1254 (10% OR 30%), Method: PREINCUBATION) “inactive; negative”; (Test System: AMES SALMONELLA TYPHIMURIUM, Strain/Indicator: TA100, Metabolic Activation: RAT, LIVER, S-9, AROCLOR 1254 (10 OR 30%), Method: PREINCUBATION) “inactive; negative”; (Test System: AMES SALMONELLA TYPHIMURIUM, Strain/Indicator: TA1535, Metabolic Activation: HAMSTER LIVER S-9, AROCLOR 1254 (10%), Method: PREINCUBATION) “inactive; negative”. Moreover, the mutagenic call reads like this: (Test System: AMES SALMONELLA TYPHIMURIUM, Strain/Indicator: TA1535, Metabolic Activation: HAMSTER, LIVER, S-9, AROCLOR 1254 (10%), Method: PREINCUBATION) “inactive; negative”; (Test System: AMES SALMONELLA TYPHIMURIUM, Strain/Indicator: TA1535, Metabolic Activation: HAMSTER, LIVER, S-9, AROCLOR 1254 (30%), Method: PREINCUBATION) “inactive; negative”; (Test System: AMES SALMONELLA TYPHIMURIUM, Strain/Indicator: TA1535, Metabolic Activation: NONE, Method: PREINCUBATION) “inactive; negative”; (Test System: AMES SALMONELLA TYPHIMURIUM, Strain/Indicator: TA1535, Metabolic Activation: RAT LIVER S-9, AROCLOR 1254 (10% OR 30%), Method: PREINCUBATION) “inactive; negative”; (Test System: AMES SALMONELLA TYPHIMURIUM, Strain/Indicator: TA1535, Metabolic Activation: RAT, LIVER, S-9, AROCLOR 1254 (10 OR 30%), Method: PREINCUBATION) “inactive; negative”; (Test System: AMES SALMONELLA TYPHIMURIUM, Strain/Indicator: TA1537, Metabolic Activation: HAMSTER LIVER S-9, AROCLOR 1254 (30%), Method: PREINCUBATION) “inactive; negative”. The mutagenic call reads like this: (Test System: AMES SALMONELLA TYPHIMURIUM, Strain/Indicator: TA1537, Metabolic Activation: HAMSTER, LIVER, S-9, AROCLOR 1254 (30%), Method: PREINCUBATION) “inactive; negative”; (Test System: AMES SALMONELLA TYPHIMURIUM, Strain/Indicator: TA1537, Metabolic Activation: NONE, Method: PREINCUBATION) “inactive; negative”; (Test System: AMES SALMONELLA TYPHIMURIUM, Strain/Indicator: TA1537, Metabolic Activation: RAT LIVER S-9, AROCLOR 1254 (30%), Method: PREINCUBATION) “inactive; negative”; (Test System: AMES SALMONELLA TYPHIMURIUM, Strain/Indicator: TA1537, Metabolic Activation: RAT, LIVER, S-9, AROCLOR 1254 (30%), Method: PREINCUBATION) “inactive; negative”.

As for `CC(C)(c1ccc(O)cc1)c1ccc(O)cc1` (tested in a mixture with another compound), the mutagenic call was “active; positive (structural changes)” (End Point: IN VITRO CHROMOSOMAL ABERRATIONS, Test System: CHL CELLS, Metabolic Activation: NONE); “inactive; negative; authors report equivocal results for structural changes at 0.63 and 1” (End Point: IN VITRO CHROMOSOMAL ABERRATIONS, Test System: CHL CELLS, Metabolic Activation: RAT, LIVER, S-9, SODIUM PHENOBARBITAL AND 5,6-BENZOFLAVONE).
